Experimental data as given in patent US10040791B2, “Isoxazole derivative as mutant isocitrate dehydrogenase 1 inhibitor” (Daiichi Sankyo Company, Limited, priority 2014, dated 2018).

What was measured:
IDH1R132C = IDH1R132C (Homo sapiens (Human), UniProt O75874, R132C); assay: Inhibitory activity against IDH1R132C enzyme (NADPH detection, WST-8); type: biochemical; details: 10 nM, residual NADPH detected with WST-8, read-out: Test Example 1 IDH1 R132C IC50
[1] = system: HT-1080 cells expressing IDH1R132C; assay: 2-HG production inhibitory activity using HT1080 cell; type: cell-based, human; details: Homo sapiens, HT-1080; 2-HG production, HT1080 cells; read-out: Test Example 3 IC50
Method: Then, 100 μL of growth medium B was added to each well, further 25 μL of a solution of each compound diluted to a predetermined concentration with growth medium B was added to each well, and the cells were incubated at 37° C. for 2 days under 5% CO2. […] Then, 150 μL of ultrapure water was further added to each well, and the mixture was stirred by pipetting and stored at −20° C.
The preserved solutions were thawed at room temperature.

[2] = system: HT1080 xenografted mice (IDH1R132C); assay: 2-HG production inhibitory activity using HT1080 xenografted mice; type: in vivo, mouse; details: 2-HG production, HT1080 xenografted mice; for response vs control in vivo at 75 mg/kg: Mus musculus, HT-1080, po, 6 h, read-out: Test Example 5 Ratio (%)
Summary of the method: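 Mice bearing HT1080 tumors received 75 mg/kg compound by oral gavage twice a day, three doses in total, at 10 mL/kg; vehicle-dosed mice were negative controls. Tumors were collected 6 h after the final dose, frozen, homogenized in methanol and centrifuged, and 2-HG was measured in the extracts.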

Sequence of IDH1R132C (O75874 whole entry R132C): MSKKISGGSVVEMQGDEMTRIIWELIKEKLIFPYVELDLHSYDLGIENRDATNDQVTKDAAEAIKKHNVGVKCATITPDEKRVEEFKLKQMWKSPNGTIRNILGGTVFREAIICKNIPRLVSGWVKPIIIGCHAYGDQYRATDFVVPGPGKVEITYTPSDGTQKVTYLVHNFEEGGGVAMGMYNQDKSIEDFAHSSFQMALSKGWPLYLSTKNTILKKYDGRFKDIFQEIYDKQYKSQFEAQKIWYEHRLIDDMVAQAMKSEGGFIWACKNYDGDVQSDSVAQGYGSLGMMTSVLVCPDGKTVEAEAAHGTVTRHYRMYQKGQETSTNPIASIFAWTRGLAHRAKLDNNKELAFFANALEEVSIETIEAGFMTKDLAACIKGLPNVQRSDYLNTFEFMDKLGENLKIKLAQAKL

SMILES: Cc1cc(Cl)cc(Cl)c1-c1noc(C(C)(C)F)c1C(=O)n1cc(C)c2c(/C=C/C(=O)O)cccc21 [Example 59, (2E)-3-(1-{[3-(2,4-Dichloro-6-methylphenyl)-5-(2-fluoropropan-2-yl)-1,2-oxazol-4-yl]carbonyl}-3-methyl-1H-indol-4-yl)prop-2-enoic acid]
- IC50 (IDH1R132C): 117 nM
- IC50 [1]: 56 nM
- response vs control in vivo at 75 mg/kg [2]: 10%

SMILES: Cc1cc(C)c(-c2noc(C(C)(C)F)c2C(=O)n2cc(C)c3c(/C=C/C(=O)O)cccc32)c(C)c1 [Example 60, (2E)-3-(1-{[5-(2-Fluoropropan-2-yl)-3-(2,4,6-trimethylphenyl)-1,2-oxazol-4-yl]carbonyl}-3-methyl-1H-indol-4-yl)prop-2-enoic acid]
- IC50 (IDH1R132C): 116 nM
- IC50 [1]: 92 nM
- response vs control in vivo at 75 mg/kg [2]: 9%

SMILES: Cc1cn(C(=O)c2c(-c3ccc(Cl)cc3Cl)noc2C(C)(C)F)c2cccc(/C=C/C(=O)O)c12 [Example 62, (2E)-3-(1-{[3-(2,4-Dichlorophenyl)-5-(2-fluoropropan-2-yl)-1,2-oxazol-4-yl]carbonyl}-3-methyl-1H-indol-4-yl)prop-2-enoic acid]
- IC50 (IDH1R132C): 155 nM
- IC50 [1]: 69 nM
- Test Example 5 Ratio (%) [2]: 10%

SMILES: Cc1cn(C(=O)c2c(-c3cc(F)c(Cl)cc3Cl)noc2C(C)(C)F)c2cccc(/C=C/C(=O)O)c12 [Example 63, (2E)-3-(1-{[3-(2,4-Dichloro-5-fluorophenyl)-5-(2-fluoropropan-2-yl)-1,2-oxazol-4-yl]carbonyl}-3-methyl-1H-indol-4-yl)prop-2-enoic acid]
- IC50 (IDH1R132C): 145 nM
- IC50 [1]: 193 nM
- response vs control in vivo at 75 mg/kg [2]: 31%

SMILES: CCc1cn(C(=O)c2c(-c3c(Cl)cc(Cl)cc3Cl)noc2C(C)(C)F)c2cccc(/C=C/C(=O)O)c12 [Example 65, (2E)-3-(3-Ethyl-1-{[5-(2-fluoropropan-2-yl)-3-(2,4,6-trichlorophenyl)-1,2-oxazol-4-yl]carbonyl}-1H-indol-4-yl)prop-2-enoic acid]
- IC50 (IDH1R132C): 198 nM
- IC50 [1]: 93 nM
- response vs control in vivo at 75 mg/kg [2]: 65%

SMILES: CC(C)(F)c1onc(-c2c(Cl)cc(Cl)cc2Cl)c1C(=O)n1cc(Cl)c2c(/C=C/C(=O)O)cccc21 [Example 66, (2E)-3-(3-Chloro-1-{[5-(2-fluoropropan-2-yl)-3-(2,4,6-trichlorophenyl)-1,2-oxazol-4-yl]carbonyl}-1H-indol-4-yl)prop-2-enoic acid]
- IC50 (IDH1R132C): 122 nM
- IC50 [1]: 59 nM
- response vs control in vivo at 75 mg/kg [2]: 49%

SMILES: CC(C)(F)c1onc(-c2c(Cl)cc(Cl)cc2Cl)c1C(=O)n1cc2c3c(c(F)ccc31)/C(=C/C(=O)O)CC2 [Example 67, (2E)-[6-Fluoro-1-{[5-(2-fluoropropan-2-yl)-3-(2,4,6-trichlorophenyl)-1,2-oxazol-4-yl]carbonyl}-3,4-dihydrobenzo[cd]indol-5(1H)-ylidene]ethanoic acid]
- IC50 (IDH1R132C): 154 nM
- IC50 [1]: 95 nM
- response vs control in vivo at 75 mg/kg [2]: 27%

SMILES: Cc1cn(C(=O)c2c(-c3c(Cl)cc(Br)cc3Cl)noc2C(C)(C)F)c2cccc(/C=C/C(=O)O)c12 [Example 68, (2E)-3-(1-{[3-(4-Bromo-2,6-dichlorophenyl)-5-(2-fluoropropan-2-yl)-1,2-oxazol-4-yl]carbonyl}-3-methyl-1H-indol-4-yl)prop-2-enoic acid]
- IC50 (IDH1R132C): 125 nM
- IC50 [1]: 32 nM
- response vs control in vivo at 75 mg/kg [2]: 47%

SMILES: CC(C)(F)c1onc(-c2ccc(Cl)cc2Cl)c1C(=O)n1cc2c3c(cccc31)/C(=C/C(=O)O)CC2 [Example 69, (2E)-[1-{[3-(2,4-Dichlorophenyl)-5-(2-fluoropropan-2-yl)-1,2-oxazol-4-yl]carbonyl}-3,4-dihydrobenzo[cd]indol-5(1H)-ylidene]ethanoic acid]
- IC50 (IDH1R132C): 168 nM
- IC50 [1]: 197 nM
- response vs control in vivo at 75 mg/kg [2]: 20%

SMILES: Cc1cn(C(=O)c2c(-c3c(Cl)cc(C4CC4)cc3Cl)noc2C(C)(C)F)c2cccc(/C=C/C(=O)O)c12 [Example 70, (2E)-3-(1-{[3-(2,6-Dichloro-4-cyclopropylphenyl)-5-(2-fluoropropan-2-yl)-1,2-oxazol-4-yl]carbonyl}-3-methyl-1H-indol-4-yl)prop-2-enoic acid]
- IC50 (IDH1R132C): 153 nM
- IC50 [1]: 71 nM
- response vs control in vivo at 75 mg/kg [2]: 41%

SMILES: CC(C)(C)c1onc(-c2c(Cl)cc(Cl)cc2Cl)c1C(=O)n1cc(C(F)F)c2c(/C=C/C(=O)O)cccc21 [Example 72, (2E)-3-(1-{[5-(tert-Butyl)-3-(2,4,6-trichlorophenyl)-1,2-oxazol-4-yl]carbonyl}-3-(difluoromethyl)-1H-indol-4-yl)prop-2-enoic acid]
- IC50 (IDH1R132C): 201 nM
- IC50 [1]: 59 nM
- response vs control in vivo at 75 mg/kg [2]: 46%

SMILES: COC1(c2onc(-c3c(Cl)cc(Cl)cc3Cl)c2C(=O)n2ccc3c(/C=C/C(=O)O)cccc32)CCC1 [Example 74, (2E)-3-(1-{[5-(1-Methoxycyclobutyl)-3-(2,4,6-trichlorophenyl)-1,2-oxazol-4-yl]carbonyl}-1H-indol-4-yl)prop-2-enoic acid]
- IC50 (IDH1R132C): 175 nM
- IC50 [1]: 118 nM
- response vs control in vivo at 75 mg/kg [2]: 20%

SMILES: COC1(c2onc(-c3c(Cl)cc(Cl)cc3Cl)c2C(=O)n2cc(C)c3c(/C=C/C(=O)O)cccc32)CCC1 [Example 79, (2E)-3-(1-{[5-(1-Methoxycyclobutyl)-3-(2,4,6-trichlorophenyl)-1,2-oxazol-4-yl]carbonyl}-3-methyl-1H-indol-4-yl)prop-2-enoic acid]
- IC50 (IDH1R132C): 161 nM
- IC50 [1]: 35 nM
- response vs control in vivo at 75 mg/kg [2]: 15%

SMILES: Cc1cn(C(=O)c2c(-c3c(Cl)cc(Cl)cc3Cl)noc2C2(N(C)C)CCC2)c2cccc(/C=C/C(=O)O)c12 [Example 81, (2E)-3-(1-{[5-[1-(Dimethylamino)cyclobutyl]-3-(2,4,6-trichlorophenyl)-1,2-oxazol-4-yl]carbonyl}-3-methyl-1H-indol-4-yl)prop-2-enoic acid]
- IC50 (IDH1R132C): 163 nM
- IC50 [1]: 31 nM
- response vs control in vivo at 75 mg/kg [2]: 15%

SMILES: CNC1(c2onc(-c3c(Cl)cc(Cl)cc3Cl)c2C(=O)n2cc(C)c3c(/C=C/C(=O)O)cccc32)CCC1 [Example 83, (2E)-3-(3-Methyl-1-{[5-[1-(methylamino)cyclobutyl]-3-(2,4,6-trichlorophenyl)-1,2-oxazol-4-yl]carbonyl}-1H-indol-4-yl)prop-2-enoic acid]
- IC50 (IDH1R132C): 87 nM
- IC50 [1]: 33 nM
- response vs control in vivo at 75 mg/kg [2]: 23%

SMILES: C=CC(=O)N(C)C1(c2onc(-c3c(Cl)cc(Cl)cc3Cl)c2C(=O)n2cc(C)c3c(/C=C/C(=O)O)cccc32)CCC1 [Example 87, (2E)-3-(1-{[5-{1-[Acryloyl(methyl)amino]cyclobutyl}-3-(2,4,6-trichlorophenyl)-1,2-oxazol-4-yl]carbonyl}-3-methyl-1H-indol-4-yl)prop-2-enoic acid]
- IC50 (IDH1R132C): 145 nM
- IC50 [1]: 71 nM
- response vs control in vivo at 75 mg/kg [2]: 68%

SMILES: C=CC(=O)N1CCC(c2onc(-c3c(Cl)cc(Cl)cc3Cl)c2C(=O)n2cc3c4c(cccc42)/C(=C/C(=O)O)CC3)CC1 [Example 94, (2E)-[1-{[5-(1-Acryloylpiperidin-4-yl)-3-(2,4,6-trichlorophenyl)-1,2-oxazol-4-yl]carbonyl}-3,4-dihydrobenzo[cd]indol-5(1H)-ylidene]ethanoic acid]
- IC50 (IDH1R132C): 159 nM
- IC50 [1]: 3 nM
- response vs control in vivo at 75 mg/kg [2]: 1%

SMILES: C=CC(=O)N1CC(c2onc(-c3c(Cl)cc(Cl)cc3Cl)c2C(=O)n2ccc3c(/C=C/C(=O)O)cccc32)C1 [Example 95]
- IC50 (IDH1R132C): 67 nM
- IC50 [1]: 89 nM
- response vs control in vivo at 75 mg/kg [2]: 44%

SMILES: C=CC(=O)N1CCC(c2onc(-c3c(Cl)cc(Cl)cc3Cl)c2C(=O)n2ccc3c(/C=C/C(=O)O)cccc32)CC1 [Example 99]
- IC50 (IDH1R132C): 272 nM
- IC50 [1]: 34 nM
- response vs control in vivo at 75 mg/kg [2]: 15%

SMILES: C#CC(=O)N1CCC(c2onc(-c3c(Cl)cc(Cl)cc3Cl)c2C(=O)n2ccc3c(/C=C/C(=O)O)cccc32)CC1 [Example 100]
- IC50 (IDH1R132C): 189 nM
- IC50 [1]: 28 nM
- response vs control in vivo at 75 mg/kg [2]: 75%

SMILES: C=CS(=O)(=O)N1CCC(c2onc(-c3c(Cl)cc(Cl)cc3Cl)c2C(=O)n2ccc3c(/C=C/C(=O)O)cccc32)CC1 [Example 103]
- IC50 (IDH1R132C): 114 nM
- IC50 [1]: 506 nM
- response vs control in vivo at 75 mg/kg [2]: 90%

SMILES: C=CC(=O)N1CCC(c2onc(-c3c(Cl)cc(Cl)cc3Cl)c2C(=O)n2cc(C)c3c(/C=C/C(=O)O)cccc32)CC1 [Example 104]
- IC50 (IDH1R132C): 93 nM
- IC50 [1]: 7 nM
- response vs control in vivo at 75 mg/kg [2]: 8%

SMILES: C=CC(=O)N1CCC(c2onc(-c3c(Cl)cc(Cl)cc3Cl)c2C(=O)n2ccc3c(C4CC4C(=O)O)cccc32)CC1 (stereo not drawn) [Example 105]
- IC50 (IDH1R132C): 567 nM
- IC50 [1]: 32 nM
- response vs control in vivo at 75 mg/kg [2]: 27%

SMILES: C=CC(=O)N1CCC(c2onc(-c3ccc(Cl)cc3Cl)c2C(=O)n2cc(C)c3c(/C=C/C(=O)O)cccc32)CC1 [Example 106]
- IC50 (IDH1R132C): 149 nM
- IC50 [1]: 23 nM
- response vs control in vivo at 75 mg/kg [2]: 12%

SMILES: C=CC(=O)N1CCC(c2onc(-c3c(Cl)cccc3Cl)c2C(=O)n2cc(C)c3c(/C=C/C(=O)O)cccc32)CC1 [Example 108]
- IC50 (IDH1R132C): 149 nM
- IC50 [1]: 38 nM
- response vs control in vivo at 75 mg/kg [2]: 58%

SMILES: C=CC(=O)N1CCC(c2onc(-c3c(C)cc(C)cc3C)c2C(=O)n2ccc3c(/C=C/C(=O)O)cccc32)CC1 [Example 109]
- IC50 (IDH1R132C): 243 nM
- IC50 [1]: 45 nM
- response vs control in vivo at 75 mg/kg [2]: 23%
